Patent publication US5374733A, “Sweetening agent derived from L-aspartic or L-glutamic acid” (priority 1989, dated 1994)

Assay: Sweetening potency: taste comparison by a team of eight experienced people with a sucrose reference solution
Conditions: Table 3; weight basis, compared with a 2% aqueous solution of sucrose
Method: The sweetening potency of the compounds described in the Examples was evaluated by a team of eight experienced people. This is done by comparing the taste of the compounds, in aqueous solution at variable concentrations, with a 2%, 5 % or 10 % reference solution of sucrose. The sweetening potency of the test compound compared with sucrose then corresponds to the weight ratio between the compound and sucrose for equal sweetening intensity, i.e. when the sweet tastes of the solution of the test compound and the reference solution of sucrose are considered, by a majority of people, to have the same sweetening intensity.
Summary Table 3 below gives, by way of examples, a list of a few compounds obtained by experimental protocols similar to those described above, which those skilled in the art will easily find, together with their relative sweetening potency (SP), evaluated on a weight basis, compared with a 2% aqueous solution of sucrose. When the groups R1, R2 and R3 are different, the configuration of the asymmetric carbon to which they are bonded (carbon marked with an asterisk) is designated according to the conventional rules of stereochemistry using the R/S system: R, S or, when both configurations coexist in the same compound, RS.

Row | Structure (SMILES) | SP (relative sweetening potency)
1 | CCC[C@H](C)C(=O)N[C@@H](CCC(=O)O)C(=O)Nc1ccc(C#N)cc1 [CH3/H/CH3 (CH2)2/S/2/CH/CH/CN] | 2800
2 | CC(OC1C(C)CCCC1C)C(=O)N[C@@H](CCC(=O)O)C(=O)Nc1ccc(C#N)cc1 (some centres unmarked) [CH3/H/(2,6-diMe)-c-C6 H9 O/RS/2/CH/CH/CN] | 1000
3 | CCC(C(=O)N[C@@H](CCC(=O)O)C(=O)Nc1ccc(C#N)cc1)c1ccccc1 (some centres unmarked) [C2 H5/H/C6 H5/RS/2/CH/CH/CN] | 2700
4 | C[C@@H](C(=O)N[C@@H](CCC(=O)O)C(=O)Nc1ccc(C#N)cc1)c1ccccc1 [CH3/H/C6 H5/R/2/CH/CH/CN] | 1300
5 | CCCCC(CC)C(=O)N[C@@H](CCC(=O)O)C(=O)Nc1ccc(C#N)cc1 (some centres unmarked) [C2 H5/H/CH3 (CH2)3/RS/2/CH/CH/CN] | 5000
6 | CCCCCC(C)(C)C(=O)N[C@@H](CCC(=O)O)C(=O)Nc1ccc(C#N)nc1 [CH3/CH3/CH3 (CH2) 4/2/N/CH/CN] | 3000
7 | CC(Oc1ccccc1)C(=O)N[C@@H](CCC(=O)O)C(=O)Nc1ccc(C#N)cc1 (some centres unmarked) [CH3/H/C6 H5 O/RS/2/CH/CH/CN] | 4000
8 | CCCCC(C)(C)C(=O)N[C@@H](CCC(=O)O)C(=O)Nc1ccc(C#N)cc1 [CH3/CH3/CH3 (CH2)3/2/CH/CH/CN] | 11000
9 | CCCCCC(C)C(=O)N[C@@H](CCC(=O)O)C(=O)Nc1ccc(C#N)cc1 (some centres unmarked) [CH3/H/CH3 (CH2)4/RS/2/CH/CH/CN] | 1000
10 | C[C@H](C(=O)N[C@@H](CCC(=O)O)C(=O)Nc1ccc(C#N)nc1)c1ccccc1 [CH3/H/C6 H5/S/2/N/CH/CN] | 4000
11 | CCCCC(C)C(=O)N[C@@H](CC(=O)O)C(=O)Nc1ccc(C#N)cc1 (some centres unmarked) [CH3/H/CH3 (CH2)3/RS/1/CH/CH/CN] | 1500
12 | C[C@@H](C(=O)N[C@@H](CCC(=O)O)C(=O)Nc1ccc(C#N)nc1)c1ccccc1 [CH3/H/C6 H5/R/2/N/CH/CN] | 2500
13 | N#Cc1ccc(NC(=O)[C@H](CCC(=O)O)NC(=O)C2(c3ccccc3)CCCC2)cn1 [CH2 (CH2)2 CH2/C6 H5/2/N/CH/CN] | 3000
14 | C[C@H](C(=O)N[C@@H](CCC(=O)O)C(=O)Nc1ccc(C#N)cc1)c1ccccc1 [CH3/H/C6 H5/S/2/CH/CH/CN] | 1500
15 | C[C@@H](Oc1ccccc1)C(=O)N[C@@H](CC(=O)O)C(=O)Nc1ccc(C#N)cc1 [CH3/H/C6 H5 O/R/1/CH/CH/CN] | 18000
16 | CCCC[C@@H](C)C(=O)N[C@@H](CCC(=O)O)C(=O)Nc1ccc(C#N)cc1 [CH3/H/CH3 (CH2)3/R/2/CH/CH/CN] | 3000
17 | CC(C)CCC(C)(C)C(=O)N[C@@H](CCC(=O)O)C(=O)Nc1ccc(C#N)cc1 [CH3/CH3/(CH3)2 CH(CH2)2/2/CH/CH/CN] | 10000
18 | CC(Oc1ccccc1)C(=O)N[C@@H](CCC(=O)O)C(=O)Nc1ccc(C#N)nc1 (some centres unmarked) [CH3/H/C6 H5 O/RS/2/N/CH/CN] | 13000
19 | CCCC[C@H](C)C(=O)N[C@@H](CCC(=O)O)C(=O)Nc1ccc(C(C)=O)cc1 [CH3/H/CH3 (CH2)3/S/2/CH/CH/COCH3] | 300
20 | CO[C@](C(=O)N[C@@H](CCC(=O)O)C(=O)Nc1ccc(C#N)cc1)(c1ccccc1)C(F)(F)F [CF3/CH3 O/C6 H5/S/2/CH/CH/CN] | 600

Row | Structure (SMILES) | SP (relative sweetening potency)
21 | CO[C@H](C(=O)N[C@@H](CCC(=O)O)C(=O)Nc1ccc(C#N)nc1)c1ccccc1 [CH3 O/H/C6 H5/S/2/N/CH/CN] | 3000
22 | CCCC[C@H](C)C(=O)N[C@@H](CCC(=O)O)C(=O)Nc1ccc(C(N)=O)cc1 [CH3/H/CH3 (CH2)3/S/2/CH/CH/CONH2] | 700
23 | CO[C@@H](C(=O)N[C@@H](CCC(=O)O)C(=O)Nc1ccc(C#N)nc1)c1ccccc1 [CH3 O/H/C6 H5/R/2/N/CH/CN] | 11000
24 | N#Cc1ccc(NC(=O)[C@H](CCC(=O)O)NC(=O)C(Cl)c2ccccc2)cc1 (some centres unmarked) [Cl/H/C6 H5/RS/2/CH/CH/CN] | 2200
25 | CCCO[C@@H](C)C(=O)N[C@@H](CCC(=O)O)C(=O)Nc1ccc(C#N)cc1 [CH3/H/CH3 (CH2)2 O/S/2/CH/CH/CN] | 200
26 | N#Cc1ccc(NC(=O)[C@H](CCC(=O)O)NC(=O)C2(c3ccccc3)CCCC2)cc1 [CH2 (CH2)2 CH2/C6 H5/2/CH/CH/CN] | 2000
27 | COC(C(=O)N[C@@H](CCC(=O)O)C(=O)Nc1ccc(C#N)cc1)c1ccccc1 (some centres unmarked) [CH3 O/H/C6 H5/RS/2/CH/CH/CN] | 2300
28 | N#Cc1ccc(NC(=O)[C@H](CC(=O)O)NC(=O)C2(c3ccccc3)CC2)cc1 [CH2 CH2/C6 H5/1/CH/CH/CN] | 1000
29 | CC(C)CCC(C)C(=O)N[C@@H](CCC(=O)O)C(=O)Nc1ccc(C#N)cc1 (some centres unmarked) [CH3/H/(CH3)2 CH(CH2)2/RS/2/CH/CH/CN] | 6000
30 | CCCCC(OC)C(=O)N[C@@H](CCC(=O)O)C(=O)Nc1ccc(C#N)nc1 (some centres unmarked) [CH3 O/H/CH3 (CH2)3/RS/2/N/CH/CN] | 2000
31 | CCCC[C@H](C)C(=O)N[C@@H](CCC(=O)O)C(=O)Nc1cnc(C#N)nc1 [CH3/H/CH3 (CH2)3/S/2/N/N/CN] | 10000
32 | CCC[C@@H](C)C(=O)N[C@@H](CCC(=O)O)C(=O)Nc1ccc(C#N)cc1 [CH3/H/CH3 (CH2)2/R/2/CH/CH/CN] | 500
33 | C=CCC(C)(C)C(=O)N[C@@H](CCC(=O)O)C(=O)Nc1ccc(C#N)cc1 [CH3/CH3/CH2 CHCH2/2/CH/CH/CN] | 500
34 | CCCO[C@H](C)C(=O)N[C@@H](CCC(=O)O)C(=O)Nc1ccc(C#N)cc1 [CH3/H/CH3 (CH2)2 O/R/2/CH/CH/CN] | 400
35 | N#Cc1ccc(NC(=O)[C@H](CCC(=O)O)NC(=O)C2(c3ccccc3)CC2)cc1 [CH2 CH2/C6 H5/2/CH/CH/CN] | 2500
36 | CC(C(=O)N[C@@H](CCC(=O)O)C(=O)Nc1ccc(C#N)cc1)C1CCCCC1 (some centres unmarked) [CH3/H/c-C6 H11/RS/2/CH/CH/CN] | 1000
37 | N#Cc1ccc(NC(=O)[C@H](CCC(=O)O)NC(=O)C(c2ccccc2)c2ccccc2)cc1 [C6 H5/H/C6 H5/2/CH/CH/CN] | 250
38 | CCCCC(C)(C)C(=O)N[C@@H](CCC(=O)O)C(=O)Nc1ccc(Cl)nc1 [CH3/CH3/CH3 (CH2)3/2/N/CH/Cl] | 600
39 | CCCC[C@@H](C)C(=O)N[C@@H](CCC(=O)O)C(=O)Nc1ccc(C#N)nc1 [CH3/H/CH3 (CH2)3/R/2/N/CH/CN] | 2000

Assay: not given
Conditions: Table 2, EP-A-0.338.946; sucrose concentration not stated; cited from earlier work

Row | Structure (SMILES) | SP
40 | CCC(CC)CN[C@@H](CC(=O)O)C(=O)Nc1ccc(C#N)cc1 [(CH3 CH2)2 CHCH2/1/4-CN--C6 H4] | 200
41 | CCCCCCCCN[C@@H](CC(=O)O)C(=O)Nc1ccc(C#N)cc1 [CH3 (CH2)6 CH2/1/4-CN--C6 H4] | 400
42 | N#Cc1ccc(NC(=O)[C@H](CCC(=O)O)NCCCc2ccccc2)cc1 [C6 H5 CH2 CH2 CH2/2/4-CN--C6 H4] | 800
43 | N#Cc1ccc(NC(=O)[C@H](CCC(=O)O)NCCCC2CCCCC2)cc1 [c-C6 H11 CH2 CH2 CH2/2/4-CN--C6 H4] | 7000
44 | CC=CC=CCN[C@@H](CCC(=O)O)C(=O)Nc1ccc(C#N)cc1 [CH3 CH=CHCH=CHCH2/2/4-CN--C6 H4] | 2000
45 | CCCCCCN[C@@H](CC(=O)O)C(=O)Nc1ccc(C#N)cc1 [CH3 (CH2)4 CH2/1/4-CN--C6 H4] | 600
46 | N#Cc1ccc(NC(=O)[C@H](CC(=O)O)NCCc2ccccc2)cc1 [C6 H5 CH2 CH2/1/4-CN--C6 H4] | 300
47 | CC(C)CCN[C@@H](CCC(=O)O)C(=O)Nc1ccc(C#N)cc1 [(CH3)2 CHCH2 CH2/2/4-CN--C6 H4] | 800
48 | CCCCCCCN[C@@H](CCC(=O)O)C(=O)Nc1ccc(C#N)cc1 [CH3 (CH2)5 CH2/2/4-CN--C6 H4] | 7000
49 | N#Cc1ccc(NC(=O)[C@H](CCC(=O)O)NCc2ccccc2)cc1 [C6 H5 CH2/2/4-CN--C6 H4] | 20
50 | CCCCCCCN[C@@H](CC(=O)O)C(=O)Nc1ccc(C#N)cc1 [CH3 (CH2)5 CH2/1/4-CN--C6 H4] | 2000
51 | CCCCCCCCN[C@@H](CCC(=O)O)C(=O)Nc1ccc(C#N)cc1 [CH3 (CH2)6 CH2/2/4-CN--C6 H4] | 2000
52 | N#Cc1ccc(NC(=O)[C@H](CC(=O)O)NCC2CCCCC2)cc1 [c-C6 H11 CH2/1/4-CN--C6 H4] | 200
53 | N#Cc1ccc(NC(=O)[C@H](CCC(=O)O)NCC=Cc2ccccc2)cc1 [C6 H5 CH=CHCH2/2/4-CN--C6 H4] | 2000
54 | CC(CCN[C@@H](CCC(=O)O)C(=O)Nc1ccc(C#N)cc1)c1ccccc1 (some centres unmarked) [C6 H5 CH(CH3)CH2 CH2/2/4-CN--C6 H4] | 400
55 | CCCC(C)CN[C@@H](CCC(=O)O)C(=O)Nc1ccc(C#N)cc1 (some centres unmarked) [CH3 (CH2)2 CH(CH3)CH2/2/4-CN--C6 H4] | 5000
56 | CCCC=CCN[C@@H](CCC(=O)O)C(=O)Nc1ccc(C#N)cc1 [CH3 (CH2)2 CH=CHCH2/2/4-CN--C6 H4] | 3000
57 | CCCCCCN[C@@H](CCC(=O)O)C(=O)Nc1ccc(C#N)cc1 [CH3 (CH2)4 CH2/2/4-CN--C6 H4] | 5000
58 | CC(N[C@@H](CC(=O)O)C(=O)Nc1ccc(C#N)cc1)C1CCCCC1 (some centres unmarked) [c-C6 H11 CH(CH3)/1/4-CN--C6 H4] | 200

Same assay, conditions: prior art and aspartame; sucrose concentration not given; cited from earlier work

Row | Structure (SMILES) | sweetening potency
59 | O=C(O)C[C@H](NC(=O)C(F)(F)F)C(=O)Nc1cccnc1 [Y=H, X=CF3 CO] | 40 times that of sucrose
